The test system of experiment [1] is CEMO-1 cells (acute lymphocytic leukemia, ALL). Put plainly: Cell proliferation assay (CellTiter 96 Aqueous One), CEMO-1. As to conditions: CEMO-1 (ALL), 48 hours of treatment. The class given is cell-based. The protocol:
(§1) Cell proliferation was analyzed after 48 hours of in vitro treatment using the CellTiter 96 Aqueous One Solution Cell Proliferation Assay (Promega, Madison, W). This is a colorimetric method for determining the number of viable cells in proliferation.
(§2) For the assay, suspension cells were cultured by triplicate at a density of 1×10^6 cells/ml in 96-well plates (100.000 cells/well, 100 μl/well), except for OCI-Ly3 and OCI-Ly10 cell lines which were cultured at a density of 0.5×10^6 cells/ml (50,000 cells/well, 100 μl/well) and for HepG2, Hep3B and PLC/PRF/5 cell lines which were cultured at a density of 3000 cells/well, 100 μl/well). Adherent cells were obtained from 80-90% confluent flasks and 100 μl of cells were seeded at a density of 5000 cells/well in 96-well plates by triplicate. Before addition of the compounds, adherent cells were allowed to attach to the bottom of the wells for 12 hours. In all cases, only the 60 inner wells were used to avoid any border effects.
(§3) After 48 hours of treatment, plates with suspension cells were centrifuged at 800 g for 10 minutes and medium was removed. The plates with adherent cells were flicked to remove medium. Then, cells were incubated with 100 μl/well of medium and 20 μl/well of CellTiter 96 Aqueous One Solution reagent. After 1-3 hours of incubation at 37° C., absorbance was measured at 490 nm in a 96-well plate reader. The background absorbance was measured in wells with only cell line medium and solution reagent. Data was calculated as a percentage of total absorbance of treated cell/absorbance of non treated cells.
(§4) These cancer cell lines and primary cultures correspond to acute lymphocytic leukemia (ALL), CEMO-1, to activated B-cell-like diffuse large B-cell lymphoma (ABC-DLBCL), OCI-Ly3 and OCI-Ly10 and to hepatocellular carcinoma cells (HCC), HepG2, Hep3B and PLC/PRF/5.

Experiment [2] addresses human G9a enzyme (Homo sapiens (Human), UniProt Q96KQ7). Put plainly: G9a enzyme activity assay (TR-FRET). Format: biochemical. As to conditions: 1 hour at room temperature. The method, then: G9a Enzyme Activity Assay
The biochemical assay to measure G9a enzyme activity relies on time-resolved fluorescence energy transfer (TR-FRET) between europium cryptate (donor) and XL665 (acceptor). TR-FRET is observed when biotinylated histone monomethyl-H3K9 peptide is incubated with cryptate-labeled anti-dimethyl-histone H3K9 antibody (CisBio Cat#61KB2KAE) and streptavidin XL665 (CisBio Cat#610SAXLA), after enzymatic reaction of G9a.
The human G9a enzyme expressed in a baculovirus infected Sf9 cell expression system was obtained from BPS Biosciences (Cat. #51001). Enzyme activity assay was carried out in a white 384-well plate in a final volume of 20 μl, as follow: • 4 μl of vehicle or studied compound 2.5× concentrated prepared in assay buffer (50 mM Tris-HCl, 10 mM NaCl, 4 mM DTT, 0.01% Tween-20 pH9). Final percentage of DMSO was 0.5%. • 2 μl of 1 nM G9a enzyme diluted in assay buffer. Final concentration was 0.2 nM. • Start the reaction by adding 4 μl of substrate mixture containing 20 μM S-adenosylmethionine and 40 nM biotinylated histone monomethyl-H3K9 peptide. • Reaction was carried out during 1 hour at room temperature. • Enzyme activity was stopped by adding 5 μl of cryptate-labeled anti-dimethyl-histone H3K9 antibody. Final concentration 150 nM. • Then, add 5 μl of streptavidin XL665 beads. Final concentration of 16 μM. • Read the plate after 1 hour of incubation at room temperature.
(§5) For each well, fluorescence was measured at 620 nm and 665 nm. A ratio (665 nm/620 nm) was then calculated in order to minimize medium interferences. Positive control was obtained in the presence of the vehicle of the compounds. Negative control was obtained in the absence of G9a enzyme activity. Calculated IC50 values were determined using GraphPrism using 4-parameters inhibition curve.
Background: In TR-FRET formats the signal depends on donor and acceptor labels being close together.

For experiment [3], the system named is Hep3B cells (hepatocellular carcinoma). Put plainly: Cell proliferation assay (CellTiter 96 Aqueous One), Hep3B. Format: cell-based. As to conditions: Hep3B (HCC), 48 hours of treatment. The protocol:
as §1, §2, §3, §4

The test system of experiment [4] is OCI-Ly10 cells (ABC-DLBCL). Put plainly: Cell proliferation assay (CellTiter 96 Aqueous One), OCI-Ly10. The class given is cell-based. As to conditions: Homo sapiens, 48 hours of treatment. The method, then:
as §1
as §2, with “In all cases, only the 60 inner wells were used to avoid any border effects.” left out
(§6) After 48 hours of treatment, plates with suspension cells were centrifuged at 800 g for 10 minutes and medium was removed. […] After 1-3 hours of incubation at 37° C., absorbance was measured at 490 nm in a 96-well plate reader. The background absorbance was measured in wells with only cell line medium and solution reagent. Data was calculated as a percentage of total absorbance of treated cell/absorbance of non treated cells. […]

In experiment [5] the target is human DNMT1 (Homo sapiens (Human), UniProt P26358). Put plainly: DNMT1 enzyme activity assay (TR-FRET, EPIgeneous methyltransferase assay). Format: biochemical. As to conditions: 15 minutes at 37° C. The protocol: DNMT1 Enzyme Activity Assay
The biochemical assay to measure DNMT1 enzyme activity relies on time-resolved fluorescence energy transfer (TR-FRET) between lumi4-Tb (donor) and d2 (acceptor) using the EPlgeneous methyltransferase assay (CisBio Cat#62SAHPEB). TR-FRET is observed when antibody specific to S-adenosylhomocysteine labeled with Lumi4-Tb is incubated with d2-labeled S-adenosylhomocysteine. TR-FRET signal is inversely proportional to the concentration of SAH, product of DNMT1 enzyme activity, in the sample. The human DNMT1 was obtained from Reaction Biology Corp. (Cat# DMT-21-124).
Enzyme activity assay was carried out in a white 384-well plate in a final volume of 20 μl, as follow: • 4 μl of vehicle or studied compound 2.5× concentrated prepared in assay buffer (50 mM Tris-HCl, 1 mM EDTA, 1 mM DTT, 0.1% Triton X-100, 5% glycerol pH 7.5). Final percentage of DMSO was 0.5%. • 2 μl of […] DNMT1 enzyme diluted in assay buffer. Final concentration was 20 nM. • Start the reaction by adding 4 μl of substrate mixture containing 1 μM S-adenosylmethionine and 1 μM poly-deoxy inosine poly-deoxy cytosine (pdI-pdC) DNA. • Reaction was carried out during 15 minutes at 37° C. • Enzyme activity was stopped by adding 2 μl of buffer one of the EPIgeneous methyltransferase assay. • After 10 minutes at room temperature, it was added 4 μl of antibody specific to S-adenosylhomocysteine labeled with Lumi4-Tb 50× diluted in buffer two of the EPIgeneous methyltransferase assay. • Add 4 μl of d2-labeled S-adenosylhomocysteine 31× diluted in buffer two of the EPIgeneous methyltransferase assay. • Read the plate after 1 hour of incubation at room temperature.
as §5

Experiment [6] concerns HepG2 cells (hepatocellular carcinoma). Put plainly: Cell proliferation assay (CellTiter 96 Aqueous One), HepG2. Format: cell-based. As to conditions: HepG2 (HCC), 48 hours of treatment. The method, then:
as §1, §2, §3, §4

For experiment [7], the system named is OCI-Ly3 cells (ABC-DLBCL). Put plainly: Cell proliferation assay (CellTiter 96 Aqueous One), OCI-Ly3. Format: cell-based. As to conditions: Homo sapiens, 48 hours of treatment. The method, then:
as §1
as §2, with “In all cases, only the 60 inner wells were used to avoid any border effects.” left out
as §6

The subject of experiment [8] is PLC/PRF/5 cells (hepatocellular carcinoma). Put plainly: Cell proliferation assay (CellTiter 96 Aqueous One), PLC/PRF/5. As to conditions: PLC/PRF/5 (HCC), 48 hours of treatment. The class given is cell-based. The protocol:
as §1, §2, §3, §4

Sequence of human DNMT1 (P26358 whole entry): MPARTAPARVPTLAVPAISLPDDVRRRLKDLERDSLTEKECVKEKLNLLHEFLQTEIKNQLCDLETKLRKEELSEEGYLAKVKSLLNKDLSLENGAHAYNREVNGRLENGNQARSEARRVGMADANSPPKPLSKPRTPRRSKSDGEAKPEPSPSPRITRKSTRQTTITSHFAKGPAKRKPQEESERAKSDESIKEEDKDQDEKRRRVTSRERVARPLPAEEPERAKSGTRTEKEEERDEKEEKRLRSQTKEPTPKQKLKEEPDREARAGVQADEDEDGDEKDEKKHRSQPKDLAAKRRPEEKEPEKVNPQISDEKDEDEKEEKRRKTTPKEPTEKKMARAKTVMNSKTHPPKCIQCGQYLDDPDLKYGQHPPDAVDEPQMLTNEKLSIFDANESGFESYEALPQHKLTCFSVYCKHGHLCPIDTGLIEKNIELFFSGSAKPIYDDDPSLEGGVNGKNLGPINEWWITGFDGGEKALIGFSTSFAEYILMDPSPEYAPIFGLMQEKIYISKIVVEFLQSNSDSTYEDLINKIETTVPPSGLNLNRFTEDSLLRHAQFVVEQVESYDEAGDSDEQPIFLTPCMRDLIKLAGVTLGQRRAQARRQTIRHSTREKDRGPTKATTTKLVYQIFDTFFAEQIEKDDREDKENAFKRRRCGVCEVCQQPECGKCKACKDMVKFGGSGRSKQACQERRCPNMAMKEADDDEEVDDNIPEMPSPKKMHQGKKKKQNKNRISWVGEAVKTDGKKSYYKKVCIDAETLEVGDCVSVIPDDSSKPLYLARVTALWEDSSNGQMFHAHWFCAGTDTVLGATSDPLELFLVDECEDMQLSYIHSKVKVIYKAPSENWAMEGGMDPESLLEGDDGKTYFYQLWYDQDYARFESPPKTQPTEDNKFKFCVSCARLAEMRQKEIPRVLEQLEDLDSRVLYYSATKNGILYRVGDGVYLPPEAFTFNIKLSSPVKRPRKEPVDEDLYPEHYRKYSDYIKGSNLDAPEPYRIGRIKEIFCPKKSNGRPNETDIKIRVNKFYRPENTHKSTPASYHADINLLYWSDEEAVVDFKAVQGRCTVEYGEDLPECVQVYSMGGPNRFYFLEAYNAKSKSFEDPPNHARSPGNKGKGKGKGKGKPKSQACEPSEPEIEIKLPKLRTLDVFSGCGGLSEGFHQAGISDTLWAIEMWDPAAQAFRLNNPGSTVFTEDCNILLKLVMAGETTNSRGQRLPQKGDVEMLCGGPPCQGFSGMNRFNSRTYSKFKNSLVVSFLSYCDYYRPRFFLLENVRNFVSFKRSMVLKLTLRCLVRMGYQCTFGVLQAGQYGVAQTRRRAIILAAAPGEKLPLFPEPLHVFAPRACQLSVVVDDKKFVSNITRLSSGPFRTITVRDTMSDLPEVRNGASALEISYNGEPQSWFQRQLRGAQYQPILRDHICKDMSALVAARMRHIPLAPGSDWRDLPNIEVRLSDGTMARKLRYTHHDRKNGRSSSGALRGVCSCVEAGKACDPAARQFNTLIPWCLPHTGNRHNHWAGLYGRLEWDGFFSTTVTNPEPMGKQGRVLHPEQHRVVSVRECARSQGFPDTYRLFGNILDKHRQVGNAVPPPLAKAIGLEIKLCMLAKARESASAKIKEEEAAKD
Sequence of human G9a enzyme (Q96KQ7 whole entry): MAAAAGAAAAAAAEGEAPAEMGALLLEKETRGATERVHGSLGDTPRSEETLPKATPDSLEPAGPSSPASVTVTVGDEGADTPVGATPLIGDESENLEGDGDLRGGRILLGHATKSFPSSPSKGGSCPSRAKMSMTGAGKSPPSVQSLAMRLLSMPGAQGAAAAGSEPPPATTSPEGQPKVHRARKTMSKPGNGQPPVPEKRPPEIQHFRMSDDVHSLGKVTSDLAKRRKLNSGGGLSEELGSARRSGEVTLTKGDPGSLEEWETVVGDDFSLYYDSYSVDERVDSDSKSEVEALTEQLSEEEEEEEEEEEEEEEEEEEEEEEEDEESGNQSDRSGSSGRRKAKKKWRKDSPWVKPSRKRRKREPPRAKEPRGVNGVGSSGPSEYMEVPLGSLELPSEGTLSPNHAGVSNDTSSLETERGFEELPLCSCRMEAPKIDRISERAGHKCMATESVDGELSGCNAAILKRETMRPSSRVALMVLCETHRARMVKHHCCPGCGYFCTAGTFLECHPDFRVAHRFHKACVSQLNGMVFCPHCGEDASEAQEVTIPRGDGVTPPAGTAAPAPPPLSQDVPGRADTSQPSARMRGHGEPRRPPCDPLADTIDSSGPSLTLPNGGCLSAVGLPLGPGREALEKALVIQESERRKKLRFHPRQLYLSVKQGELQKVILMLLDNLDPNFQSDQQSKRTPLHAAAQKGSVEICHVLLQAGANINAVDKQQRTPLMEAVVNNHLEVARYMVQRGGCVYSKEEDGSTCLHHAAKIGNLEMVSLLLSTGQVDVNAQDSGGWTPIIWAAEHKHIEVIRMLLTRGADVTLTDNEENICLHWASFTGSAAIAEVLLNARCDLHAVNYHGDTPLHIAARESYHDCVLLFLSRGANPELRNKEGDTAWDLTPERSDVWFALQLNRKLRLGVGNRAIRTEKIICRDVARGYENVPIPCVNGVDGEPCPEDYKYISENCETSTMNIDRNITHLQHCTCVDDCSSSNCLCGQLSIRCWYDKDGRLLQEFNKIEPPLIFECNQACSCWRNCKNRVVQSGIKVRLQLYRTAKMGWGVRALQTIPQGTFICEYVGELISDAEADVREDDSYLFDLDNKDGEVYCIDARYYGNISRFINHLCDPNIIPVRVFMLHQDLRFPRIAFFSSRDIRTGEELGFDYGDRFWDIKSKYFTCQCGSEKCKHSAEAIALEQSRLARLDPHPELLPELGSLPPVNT

Broadly, the GI50 is the concentration giving 50% growth inhibition. Read a low GI50 as more potent growth inhibition. The IC50 is the concentration needed to halve the response being measured. A higher IC50 goes with weaker potency. In the case of `COc1cc2c(cc1OCCCN1CCCC1)nc(-c1ccc(C)o1)c1cc(CC3CCN(C)CC3)[nH]c12` [Compound 1-02, 8-methoxy-4-(5-methyl-2-furyl)-2-[(1-methyl-4-piperidyl)methyl]-7-(3-pyrrolidin-1-ylpropoxy)-1H-pyrrolo[3,2-c]quinoline], the GI50 is 100 to 1000 nM in experiment [1]; 1000 to 10000 nM in experiment [3] (Homo sapiens); 1000 to 10000 nM in experiment [4]; 1000 to 10000 nM in experiment [6] (Homo sapiens); 100 to 1000 nM in experiment [7]; 100 to 1000 nM in experiment [8] (Homo sapiens). Moreover, the IC50 in experiment [2] and in experiment [5] was 100 to 500 nM throughout.
Take `COc1cc2c(cc1OCCCN1CCCC1)nc(-c1ccc(C)o1)c1cc(CC3CCN(C(C)C)CC3)[nH]c12` [Compound 1-03, 2-[(1-isopropyl-4-piperidyl)methyl]-8-methoxy-4-(5-methyl-2-furyl)-7-(3-pyrrolidin-1-ylpropoxy)-1H-pyrrolo[3,2-c]quinoline]: the 50% growth inhibitory concentration (GI50) in experiment [1] is 1000 to 10000 nM; in experiment [3] (Homo sapiens), 1000 to 10000 nM; in experiment [6] (Homo sapiens), 1000 to 10000 nM; in experiment [8] (Homo sapiens) it was 100 to 1000 nM. For the same compound, the IC50 in experiment [2] is 100 to 500 nM; in experiment [5] it was 500 to 1000 nM.
In the case of `CCc1ccc(-c2nc3cc(OCCCN4CCCC4)c(OC)cc3c3[nH]c(CC4CCN(C)CC4)cc23)o1` [Compound 1-04], the 50% growth inhibitory concentration (GI50) in experiment [1] lay within 100 to 1000 nM; in experiment [3], 1000 to 10000 nM; in experiment [6], 1000 to 10000 nM; in experiment [8], 100 to 1000 nM. The IC50 was in the range of 100 to 500 nM in experiment [2] and 500 to 1000 nM in experiment [5].
`COc1cc2c3c(c(-c4ccc(C)o4)nc2cc1OCCCN1CCCC1)CCC(CC1CCN(C)CC1)N3` (stereo not shown) [Compound 2-06, 9-methoxy-5-(5-methyl-2-furyl)-2-[(1-methyl-4-piperidyl)methyl]-8-(3-pyrrolidin-1-ylpropoxy)-1,2,3,4-tetrahydrobenzo[h][1,6]naphthyridine]: the GI50 in experiment [1] was 1000 to 10000 nM; in experiment [3] (Homo sapiens), at least 10000 nM; in experiment [6] (Homo sapiens) it was at least 10000 nM; in experiment [8] (Homo sapiens) it was 1000 to 10000 nM. In addition, the concentration for half-maximal inhibition (IC50) in experiment [2] was below 100 nM; in experiment [5] it was 100 to 500 nM.
Take `COc1cc2c3c(c(-c4ccc(C)o4)nc2cc1OCCCN1CCCC1)CCC(CC1CCN(C2CC2)CC1)N3` (stereo not shown) [Compound 2-07, 2-[(1-cyclopropyl-4-piperidyl)methyl]-9-methoxy-5-(5-methyl-2-furyl)-8-(3-pyrrolidin-1-ylpropoxy)-1,2,3,4-tetrahydrobenzo[h][1,6]naphthyridine]: the GI50 in experiment [1], in experiment [3] (Homo sapiens), in experiment [6] (Homo sapiens) and in experiment [8] (Homo sapiens) was 1000 to 10000 nM in each case. Besides, the results for the IC50 in experiment [2] and in experiment [5] were below 100 nM and 500 to 1000 nM, respectively.
In the case of `COc1cc2c3c(c(-c4ccc(C)o4)nc2cc1OCCCN1CCCC1)CCC(CC1CCN(C(C)C)CC1)N3` (stereo not shown) [Compound 2-08, 2-[(1-isopropyl-4-piperidyl)methyl]-9-methoxy-5-(5-methyl-2-furyl)-8-(3-pyrrolidin-1-ylpropoxy)-1,2,3,4-tetrahydrobenzo[h][1,6]naphthyridine], the GI50 in experiment [1], in experiment [3] (Homo sapiens), in experiment [6] (Homo sapiens) and in experiment [8] (Homo sapiens) was 1000 to 10000 nM in each case. Moreover, the results for the IC50 in experiment [2] and in experiment [5] were below 100 nM and 500 to 1000 nM, respectively.
Consider `COc1cc2c3c(c(-c4ccc(C)o4)nc2cc1OCCCN1CCCC1)CCC(CC1CCN(C2CCCCC2)CC1)N3` (stereo not shown) [Compound 2-12, 2-[(1-cyclohexyl-4-piperidyl)methyl]-9-methoxy-5-(5-methyl-2-furyl)-8-(3-pyrrolidin-1-ylpropoxy)-1,2,3,4-tetrahydrobenzo[h][1,6]naphthyridine], for which the GI50 in experiment [1], in experiment [3] (Homo sapiens) and in experiment [6] (Homo sapiens) was 100 to 1000 nM throughout. Moreover, the IC50 in experiment [2] was below 100 nM; in experiment [5], 500 to 1000 nM.

For the origin of these results see patent US10407423B2, “Compounds as inhibitors of DNA methyltransferases” (FUNDACIÓN PARA LA INVESTIGACIÓN MÉDICA APLICADA, priority 2015, dated 2019).
